Measured values: publication PMC5978685, “Design, Synthesis, and Evaluation of Novel Immunomodulatory Small Molecules Targeting the CD40–CD154 Costimulatory Protein-Protein Interaction” (Molecules : A Journal of Synthetic Chemistry and Natural …, 2018)
“Also recorded” adds a separate entry of the source. Read-outs that look alike come from different tables or passages of the source.

How the values were obtained:
[1] = test system: alloantigen-induced T cell response in draining popliteal lymph node; test: alloantigen-induced T cell expansion in draining lymph node; type: in vivo, mouse (Balb/c); conditions: Balb/c mice, DBA-2 splenocytes in footpad; 10–20 mg/kg s.c. b.i.d.; p < 0.0001 vs vehicle
Description: The most promising compounds of the present series were evaluated for in vivo activity using the same model of alloantigen-induced T cell expansion in the draining lymph nodes (DLNs) that was described before. This procedure involved injection of splenocytes isolated from DBA-2 mice into the footpad of Balb/c recipients. Within three full days, this causes a significant increase in the number of cells in the draining popliteal lymph node, and this is inhibited by compounds with immunosuppressive activity.
The ability to inhibit alloantigen-induced T cell response in a draining lymph node was tested as described before. In brief, BALB/c mice (10–12 weeks old, female) received a footpad injection of 1 × 10^7 splenocytes isolated from DBA-2 mice (10–12 weeks old, male). CD154 antibody (MR-1; 20 mg/kg, day −1 and 0) or test compounds (20–60 mg/kg; b.i.d. from day −1 to 3, in 20% HPβCD) were administered s.c., and the draining popliteal lymph nodes (DLNs) were collected 3 days after the alloantigen challenge. DLN cells were counted and data are shown as mean ± SD (n = 3–4 per group).
(§1) All binding inhibition and cell assays were tested in duplicate or triplicate per plates, and assays were performed as at least three independent experiments. As before, binding and cytotoxicity data were converted to percent inhibition and fitted with standard log inhibitor vs. normalized response models using nonlinear regression in GraphPad Prism (GraphPad, La Jolla, CA, USA) to establish half-maximal (median) inhibitory concentration (IC50) or median lethal concentration (LC50) values. Cell assay data were fitted with a similar model that also allowed for a variable slope using the log inhibitor vs. normalized response (variable slope) model from Prism with a Hill slope (n) shared across all compounds. Cell assays and draining lymph node data were analyzed by one-way repeated-measures analysis of variance (ANOVA) followed by Dunnett’s multiple comparison test as a post hoc test for individual differences using GraphPad Prism and a significance level of p < 0.05 for all comparisons.
Figure 6 Inhibition of alloantigen-induced T cell response in a draining lymph node by compounds 6, 15, 18, and 19. Mice (Balb/c) received a footpad injection of allogeneic splenocytes (isolated from DBA-2 mice) and were treated with anti-CD154 antibody (MR-1; 20 mg/kg, day −1 and 0) or compounds as shown (10–40 mg/kg, b.i.d. from day −1 to 3, s.c. in 20% HPβCD). Draining (popliteal) lymph nodes were collected three days after the alloantigen challenge and cells were counted. Data are shown as mean ± SD. Significant differences compared to vehicle-treated controls are indicated by asterisks (**** p < 0.0001; one-way ANOVA followed by Dunnett’s multiple comparison test).

OX40–OX40L = molecular target: T1, OX40–OX40L (Homo sapiens, UniProt P23510); test: cell-free ELISA-type binding inhibition assay, OX40–OX40L
T1 construct: purchased Enzo Life Sciences
T1 sequence (P23510 51-183 limits assumed): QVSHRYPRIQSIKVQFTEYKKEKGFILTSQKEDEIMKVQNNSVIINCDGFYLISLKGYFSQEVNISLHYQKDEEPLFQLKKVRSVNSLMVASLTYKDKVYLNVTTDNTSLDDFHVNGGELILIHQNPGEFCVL
Description: (§2) In parallel with the CD40–CD154 assay, the ability of these compounds to inhibit other TNFSFR–TNFSF PPIs, including OX40–OX40L, BAFFR–BAFF, and TNF-R1–TNF-α, was also assessed (Figure 3B–D).
(§3) Binding inhibition assays were performed in a 96-well cell-free format as described before. Briefly, microtiter plates (Nunc F Maxisorp, 96-well; Thermo Fisher Scientific, Waltham, MA, USA) were coated overnight at 4 °C with 100 μL/well of Fc-conjugated receptors diluted in PBS pH 7.2. This was followed by blocking with 200 μL/well of blocking solution (PBS pH 7.2, 0.05% Tween-20, 1% BSA) for 1 h at RT. Then, plates were washed twice using washing solution (PBS pH 7.4, 0.05% Tween-20) and tapped dry before the addition of the appropriate FLAG tagged ligands along with different concentrations of tested dyes diluted in binding buffer (100 mM HEPES, 0.005% BSA pH 7.2) to give a total volume of 100 μL/well. After 1 h incubation, three washes were conducted, and anti-FLAG HRP conjugate was used to detect the bound FLAG-tagged ligand. Plates were washed four times before the addition of 120 μL/well of HRP substrate TMB (3,3′,5,5′-tetramethylbenzidine) and kept in the dark for up to 15 min. The reaction was stopped using 30 μL of 1M H2SO4, and the absorbance value was read at 450 nm. The concentrations of receptors used were 0.3 μg/mL for CD40, TNF-R1, and BAFFR; 0.6 μg/mL for OX40. The concentrations of the ligands were fixed at 0.02 μg/mL for CD154 and TNF-α, 0.06 μg/mL for OX40L, and 0.03 μg/mL for BAFF. These values were selected following preliminary testing to optimize response (i.e., to produce a high-enough signal at conditions close to half-maximal response, EC50). […] To verify that inhibition is not due to colloidal aggregation, CD40 binding inhibition was also measured in the presence of the non-ionic detergent Triton-X 100 (0.01%), as recommended for the detection of such effects.
as §1
(§4) Data are (counterclockwise) for human CD40–CD154 (CD40L) (A); OX40–OX40L (B); BAFFR–BAFF (C); and TNF-R1–TNFα (D) and were fitted with standard binding curves. Data are average ± SD (normalized to percent binding) for n = 3 independent experiments with duplicates for each condition.

BAFFR–BAFF = molecular target: T2, BAFFR–BAFF (Homo sapiens, UniProt Q9Y275); test: cell-free ELISA-type binding inhibition assay, BAFFR–BAFF
T2 construct: purchased Enzo Life Sciences
T2 sequence (Q9Y275 134-285 limits assumed): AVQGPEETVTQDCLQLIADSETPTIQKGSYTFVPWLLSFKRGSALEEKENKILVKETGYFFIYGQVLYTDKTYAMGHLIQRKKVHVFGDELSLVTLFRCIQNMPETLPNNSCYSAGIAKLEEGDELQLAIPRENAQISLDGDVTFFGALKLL
Description: as §2, §3, §1, §4

TNF-R1–TNFα = molecular target: T3, TNF-R1–TNFα (Homo sapiens, UniProt P01375); test: cell-free ELISA-type binding inhibition assay, TNF-R1–TNFα
T3 construct: purchased Enzo Life Sciences
T3 sequence (P01375 85-233 limits assumed): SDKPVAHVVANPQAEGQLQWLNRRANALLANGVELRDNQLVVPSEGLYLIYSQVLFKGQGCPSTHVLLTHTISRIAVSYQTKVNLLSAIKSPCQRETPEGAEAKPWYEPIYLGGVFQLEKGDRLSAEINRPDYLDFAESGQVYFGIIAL
Description: as §2, §3, §1, §4

CD40–CD154 (CD40L) = molecular target: T4, CD40–CD154 (CD40L) (Homo sapiens, UniProt P29965); test: cell-free ELISA-type binding inhibition assay, CD40–CD154; conditions: for IC50: cell-free CD40–CD154 binding inhibition, read-out: CD40 IC50; for selectivity toward CD40–CD154 against all other PPIs tested: vs OX40–OX40L, BAFFR–BAFF, TNF-R1–TNF-α
T4 construct: purchased Enzo Life Sciences
T4 sequence (P29965 116-261 limits assumed): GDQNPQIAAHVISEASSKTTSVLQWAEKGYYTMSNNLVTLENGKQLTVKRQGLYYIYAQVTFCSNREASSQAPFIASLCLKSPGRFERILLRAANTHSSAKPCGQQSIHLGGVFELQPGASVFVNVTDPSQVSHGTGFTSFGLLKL
From the text: As a first assessment, the CD40–CD154 inhibitory activity of compounds 6–19 (Figure 2, Table 1) was quantified using a cell-free in vitro binding inhibition assay as described before. Data fitted with typical sigmoidal concentration dependence curves (log inhibitor versus response model in GraphPad Prism, Hill slope n = 1) are summarized in Figure 3A. […] Polymolecular conglomeration and/or aggregation is often a cause of promiscuous inhibition in screening assays. Therefore, just as in our previous work, we checked for this, and we confirmed for several compounds that inhibition due to aggregation is not the case by retesting inhibitory activity in the presence of a non-ionic detergent (Triton-X 100, 0.01%) as recommended for the detection of such effects.
as §3, §1, §4

[2] = cell-free TNF-R1–TNFα binding inhibition, read-out: TNF IC50

| Structure (SMILES) | inhibition of alloantigen-induced T cell expansion in draining lymph node [1] | IC50 (OX40–OX40L) | IC50 (BAFFR–BAFF) | IC50 (TNF-R1–TNFα; [2]) | IC50 (TNF-R1–TNFα; cell-free binding inhibition, read-out: TNF-R1–TNF IC50) | IC50 (CD40–CD154 (CD40L)) | selectivity toward CD40–CD154 against all other PPIs tested (CD40–CD154 (CD40L)) | selectivity toward CD40–CD154 against all other PPIs tested (CD40–CD154 (CD40L); listed as DRI-C21095) |
| --- | --- | --- | --- | --- | --- | --- | --- | --- |
| COC(=O)c1ccc(-c2ccc(C(=O)Nc3ccc(-c4ccc(C(=O)Nc5cccc6cccc(S(=O)(=O)O)c56)cc4)cc3)cc2)cc1 [Compound 15, 8-(4′-(4′-(Methoxycarbonyl)-[1,1′-biphenyl]-4-carboxamido)-[1,1′-biphenyl]-4-carboxamido)naphthalene-1-sulfonic acid] | highly significant inhibitory activity; also recorded: inhibited the alloantigen-induced T cell response in this model in statistically significant manner | 1.01 µM | 1.52 µM | 26.5 µM | 26.5 µM | 0.019 µM | > 30 fold | more than thirty-fold |
| O=C(Nc1ccc(-c2ccc(C(=O)Nc3cccc4cccc(S(=O)(=O)O)c34)cc2)nc1)c1ccc([N+](=O)[O-])cc1 [Compound 18, 8-(4-(5-(4-Nitrobenzamido)pyridin-2-yl)benzamido)naphthalene-1-sulfonic acid] | highly significant inhibitory activity; also recorded: inhibited the alloantigen-induced T cell response in this model in statistically significant manner | 5.48 µM | 8.07 µM | 46.9 µM |  | 1.34 µM |  |  |
| O=C(Nc1ccc(-c2ccc(C(=O)Nc3cccc4cccc(S(=O)(=O)O)c34)cc2)cc1)c1ccc([N+](=O)[O-])cc1 [Compound 6, 8-(4′-(4-Nitrobenzamido)biphenyl-4-ylcarboxamido)naphthalene-1-sulfonic acid] | highly significant inhibitory activity; also recorded: inhibited the alloantigen-induced T cell response in this model in statistically significant manner | 318 µM | 0.328 µM | > 1000 µM |  | 0.087 µM |  |  |
